Experimental data from patent publication US20210405025A1, “IDENTIFYING COMPOUNDS FOR TREATING CANCER AND USE THEREOF” (THE UAB RESEARCH FOUNDATION, priority 2018, published 2021).
Where a name gives a salt, the structure may show the parent alone. Read-outs that look alike come from different tables or passages of the source.

Tested on: relapsed AML cells
Test: Drug sensitivity assay, 1,536-well, 3-day culture with individual approved drugs at 10 μM, viability by alamarBlue
Assay type: cell-based, human
How it was run: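 Three-day exposure of primary AML cells to individual drugs in 1,536-well format, viability read as percent live cells. Cells were thawed, cultured overnight, sorted by FACS for viable blasts and plated at 4,000-4,500 cells/5 μL in cytokine-supplemented IMDM/BIT medium.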

[1] = number of relapsed AML cases out of 18 tested with >70% cell death, 10 μM, 3-day culture

Structure (SMILES) | #Cases >70% cell death [1] | #Cases >70% cell death
COc1cc(NS(C)(=O)=O)ccc1Nc1c2ccccc2nc2ccccc12 [AMSACRINE] | 4 | –
Clc1ccc(C(Cn2ccnc2)OCc2ccsc2Cl)c(Cl)c1 (stereo not shown) [TIOCONAZOLE] | 1 | –
CCCCOc1ccc(OCCCN2CCOCC2)cc1 [PRAMOXINE] | 1 | –
CCC(=O)O[C@]1(C(=O)SCF)[C@H](C)C[C@H]2[C@@H]3C[C@H](F)C4=CC(=O)C=C[C@]4(C)[C@@]3(F)[C@@H](O)C[C@@]21C [FLUTICASONE PROPIONATE] | 3 | –
C[C@]12CC[C@H](O)C[C@H]1CC[C@@H]1[C@@H]2C[C@@H](O)[C@]2(C)[C@@H](C3=CC(=O)OC3)CC[C@]12O [DIGOXIGENIN] | 18 | –
[H]/N=C(\N/C(=N/[H])NCCCCCCNC(=N)NC(=N)Nc1ccc(Cl)cc1)Nc1ccc(Cl)cc1 [CHLORHEXIDINE DIHYDROCHLORIDE] | 11 | –
CC(=O)[C@@]1(O)CC[C@H]2[C@@H]3C[C@H](C)C4=CC(=O)C=C[C@]4(C)[C@@]3(F)[C@@H](O)C[C@@]21C [FLUOROMETHOLONE] | 2 | –
Cc1cc(C2CCCCC2)n(O)c(=O)c1 [CICLOPIROX] | 14 | –
CCOc1ccc2nc3cc(N)ccc3c(N)c2c1 [ETHACRIDINE LACTATE] | 2 | –
Cc1cc(N)c2ccccc2[n+]1CCCCCCCCCC[n+]1c(C)cc(N)c2ccccc21 [DEQUALINIUM CHLORIDE] | 17 | –
CC[C@@H]1/C=C(\C)C[C@H](C)C[C@H](OC)[C@H]2O[C@@](O)(C(=O)C(=O)N3CCCC[C@H]3C(=O)O[C@H](/C(C)=C/[C@@H]3CC[C@H](Cl)[C@H](OC)C3)[C@H](C)[C@@H](O)CC1=O)[C@H](C)C[C@@H]2OC [PIMECROLIMUS] | 2 | –
Cc1ncc(-c2ccnc(Nc3ccc(S(C)(=O)=O)cc3)n2)n1C(C)C [AZD-5438] | 17 | –
CCOC(=O)C1=C(COCCN)NC(C)=C(C(=O)OC)C1c1ccccc1Cl (stereo not shown) [AMLODIPINE] | 14 | –
CN[C@@H]1[C@@H](O)[C@@H](O[C@@H]2[C@@H](O)[C@H](O[C@H]3OC(CN)=CC[C@H]3N)[C@@H](N)C[C@H]2N)OC[C@]1(C)O [SISOMICIN] | 10 | –
C[C@H]1[C@H](OC(=O)CCC(=O)O)O[C@@H]2O[C@@]3(C)CC[C@H]4[C@H](C)CC[C@@H]1[C@@]24OO3 [ARTESUNATE] | 5 | –
Clc1ccc(C(Cn2ccnc2)OCc2csc3c(Cl)cccc23)c(Cl)c1 (stereo not shown) [SERTACONAZOLE] | 2 | –
O=c1[nH]cc(F)c(=O)[nH]1 [FLUOROURACIL] | 4 | –
CN(C[C@@H]1COCCO1)S(=O)(=O)Nc1ccc2ccc3ncc(-c4cnn(C)c4)cc3c(=O)c2c1 [MK-2461] | 2 | –
O=C(O)/C=C/c1ccc(-c2ccc(O)c(C34CC5CC(CC(C5)C3)C4)c2)cc1 [ADAROTENE] | 11 | –
CCCC1O[C@@H]2C[C@H]3[C@@H]4CCC5=CC(=O)C=C[C@]5(C)[C@H]4[C@@H](O)C[C@]3(C)[C@]2(C(=O)CO)O1 (stereo partly shown) [BUDESONIDE] | 2 | –
CCOC(=O)/C=C(C)/C=C/C=C(C)/C=C/c1c(C)cc(OC)c(C)c1C [ETRETINATE] | 1 | –
CC(=O)CC(c1ccc([N+](=O)[O-])cc1)c1c(O)c2ccccc2oc1=O (stereo not shown) [ACENOCOUMAROL] | 4 | –
C#Cc1cccc(Nc2ncnc3cc(OCCOC)c(OCCOC)cc23)c1 [ERLOTINIB] | 6 | –
Cc1cc2nc3ccc(N(C)C)cc3[s+]c2cc1N [TOLONIUM CHLORIDE] | 11 | –
Cc1nc(Nc2ncc(C(=O)Nc3c(C)cccc3Cl)s2)cc(N2CCN(CCO)CC2)n1 [DASATINIB] | 6 | –
CCCNCC(O)COc1ccccc1C(=O)CCc1ccccc1 (stereo not shown) [PROPAFENONE] | 1 | –
N#C[C@@H]1CCCN1C(=O)CNC12CC3CC(CC(O)(C3)C1)C2 [VILDAGLIPTIN] | 1 | –
CC(C)(Sc1cc(C(C)(C)C)c(O)c(C(C)(C)C)c1)Sc1cc(C(C)(C)C)c(O)c(C(C)(C)C)c1 [PROBUCOL] | 4 | –

Structure (SMILES) | #Cases >70% cell death [1] | #Cases >70% cell death
Cc1ccc(C(=O)c2cc(O)c(O)c([N+](=O)[O-])c2)cc1 [TOLCAPONE] | 1 | –
COc1cc(CNC(=O)CCCC/C=C/C(C)C)ccc1O [CAPSAICIN] | 1 | –
C[C@@H](NCCCc1cccc(C(F)(F)F)c1)c1cccc2ccccc12 [AMG-073 HCL] | 1 | –
[O-][n+]1ccccc1[S-].[O-][n+]1ccccc1[S-].[Zn+2] [PYRITHIONE ZINC] | – | 7
C#C[C@]1(O)CC[C@H]2[C@@H]3[C@H](C)CC4=C(CCC(=O)C4)[C@H]3CC[C@@]21C [TIBOLONE] | 1 | –
COc1ccc(CCN2CCC(Nc3nc4ccccc4n3Cc3ccc(F)cc3)CC2)cc1 [ASTEMIZOLE] | 7 | –
CC(C)/N=c1\cc2n(-c3ccc(Cl)cc3)c3ccccc3nc-2cc1Nc1ccc(Cl)cc1 [CLOFAZIMINE] | 6 | –
CC(NCCC(c1ccccc1)c1ccccc1)c1ccccc1 (stereo not shown) [FENDILINE HYDROCHLORIDE] | 1 | –
Cc1nc2ccccc2n1Cc1ccc(Cl)cc1 [CHLORMIDAZOLE] | 1 | –
CC(C)(C)NCC(O)c1ccc(O)c(CO)c1 (stereo not shown) [ALBUTEROL] | 1 | –
COC(=O)C1=C(C)NC(C)=C(C(=O)OCCN2CCN(C(c3ccccc3)c3ccccc3)CC2)C1c1cccc([N+](=O)[O-])c1 (stereo not shown) [MANIDIPINE] | 5 | –
C[n+]1c2cc(N)ccc2cc2ccc(N)cc21.[Cl-] [ACRIFLAVINIUM HYDROCHLORIDE] | 5 | –
C[C@H]1COc2c(C3(N)CC3)c(F)cc3c(=O)c(C(=O)O)cn1c23 [PAZUFLOXACIN] | 1 | –
C[C@]12C=CC(=O)C=C1CC[C@@H]1[C@@H]2[C@@H](O)C[C@@]2(C)[C@H]1CC[C@]2(O)C(=O)CO [PREDNISOLONE] | 1 | –
COc1cccc2c1C(=O)c1c(O)c3c(c(O)c1C2=O)C[C@@](O)(C(=O)CO)C[C@@H]3O[C@H]1C[C@H](N)[C@@H](O)[C@H](C)O1 [EPIRUBICIN] | 18 | –
Cc1ccc(Nc2nccc(N(C)c3ccc4c(C)n(C)nc4c3)n2)cc1S(N)(=O)=O [PAZOPANIB] | 4 | –
CC[C@]1(O)C[C@@H]2CN(CCc3c([nH]c4ccccc34)[C@@](C(=O)OC)(c3cc4c(cc3OC)N(C)[C@H]3[C@@](O)(C(=O)OC)[C@H](OC(C)=O)[C@]5(CC)C=CCN6CC[C@]43[C@@H]65)C2)C1 [VINBLASTINE] | 14 | –
CC(C)N1CCN(c2ccc(OCC3COC(Cn4cncn4)(c4ccc(Cl)cc4Cl)O3)cc2)CC1 (stereo not shown) [TERCONAZOLE] | 7 | –
COC(=O)C1=C(C)NC(C)=C(C(=O)OCCCN2CCC(c3ccccc3)(c3ccccc3)CC2)[C@@H]1c1cccc([N+](=O)[O-])c1 [DEXNIGULDIPINE] | – | 8
CCN(CC)CCOc1ccc(C(=C(Cl)c2ccccc2)c2ccccc2)cc1 [CLOMIFENE] | 10 | –
C[C@@H]1O[C@@H](O[C@@H]2C=C3CC[C@@H]4[C@H](CC[C@]5(C)[C@@H](c6ccc(=O)oc6)CC[C@]45O)[C@@]3(C)CC2)[C@H](O)[C@H](O)[C@H]1O [PROSCILLARIDIN] | 18 | –
COCCOC(=O)C1=C(C)NC(C)=C(C(=O)OC/C=C/c2ccccc2)C1c1cccc([N+](=O)[O-])c1 (stereo not shown) [CILNIDIPINE] | 1 | –
Nc1ncn([C@@H]2O[C@H](CO)[C@@H](O)[C@H]2O)c(=O)n1 [AZACYTIDINE] | 8 | –
COc1cc2ncnc(Nc3ccc(F)c(Cl)c3)c2cc1OCCCN1CCOCC1 [GEFITINIB] | 2 | –
CC(C)(C)c1[nH]cnc1/C=c1\[nH]c(=O)/c(=C/c2ccccc2)[nH]c1=O [PLINABULIN] | 12 | –
C[CH2][Hg][S]c1ccccc1C(=O)[O-].[Na+] [THIMEROSAL] | – | 18
CS(=O)(=O)N1CCc2c(-c3cnc(N)nc3)nc(N3CCOCC3)nc21 [CH5132799] | 3 | –
